# Data published in publication PMC4811503, “A method for quantification of exportin-1 (XPO1) occupancy by Selective Inhibitor of Nuclear Export (SINE) compounds” (Oncotarget, 2015).
# Where “and” joins values, the source holds several entries; their conditions need not be identical. Equal values may be shown once. Read-outs that look alike come from different tables or passages of the source.
# Tests used:
# Type in all cases: cell-based
# [1] = tested on: nuclear export of the XPO1 cargo protein Rev-GFP in stably transfected U2OS cells; assay: Rev-GFP assay (nuclear retention of Rev-GFP); conditions: Homo sapiens
# Text: For this assay we utilized biotinylated LMB (b-LMB) as a tool compound to quantify the amount of XPO1 bound by SINE compounds (Figure 1). b-LMB was synthesized by coupling a biotin tag to LMB. We compared the inhibition of nuclear export and the cytotoxicity of b-LMB to that of the unmodified LMB. […] We then quantified the effects of these compounds on cell death in several cancer cell lines using an MTT cytotoxicity assay (Table 2).
# For the typical Rev-GFP assay, U2OS cells stably expressing Rev-GFP [42] were cultured in 96 well plates at 7,500 - 15,000 cells/well. […] After fixation cells were stained with DAPI (Invitrogen) for 10 minutes at room temperature. Cells were imaged with a Nikon fluorescent microscope at 10X magnification and intensity of the GFP and nuclear area were measured and recorded. Cells were scored as either GFP nuclear positive or negative. Number of positive cells were divided by total number of cells in order to calculate percentage of cells with nuclear GFP per well.
# [2] = tested on: UCH2; assay: MTT cytotoxicity assay; conditions: read-out: Selinexor IC50 (μM)
# [3] = biological target: XPO1 (Homo sapiens, UniProt O14980); assay: XPO1 occupancy assay in cultured cell lines (biotinylated probe pull-down, Simple Western); set-up: Cells were collected, washed with PBS, and lysed with RIPA Buffer; endogenous in cells; host or cells: MM.1S
# Chain of XPO1 (O14980 whole entry): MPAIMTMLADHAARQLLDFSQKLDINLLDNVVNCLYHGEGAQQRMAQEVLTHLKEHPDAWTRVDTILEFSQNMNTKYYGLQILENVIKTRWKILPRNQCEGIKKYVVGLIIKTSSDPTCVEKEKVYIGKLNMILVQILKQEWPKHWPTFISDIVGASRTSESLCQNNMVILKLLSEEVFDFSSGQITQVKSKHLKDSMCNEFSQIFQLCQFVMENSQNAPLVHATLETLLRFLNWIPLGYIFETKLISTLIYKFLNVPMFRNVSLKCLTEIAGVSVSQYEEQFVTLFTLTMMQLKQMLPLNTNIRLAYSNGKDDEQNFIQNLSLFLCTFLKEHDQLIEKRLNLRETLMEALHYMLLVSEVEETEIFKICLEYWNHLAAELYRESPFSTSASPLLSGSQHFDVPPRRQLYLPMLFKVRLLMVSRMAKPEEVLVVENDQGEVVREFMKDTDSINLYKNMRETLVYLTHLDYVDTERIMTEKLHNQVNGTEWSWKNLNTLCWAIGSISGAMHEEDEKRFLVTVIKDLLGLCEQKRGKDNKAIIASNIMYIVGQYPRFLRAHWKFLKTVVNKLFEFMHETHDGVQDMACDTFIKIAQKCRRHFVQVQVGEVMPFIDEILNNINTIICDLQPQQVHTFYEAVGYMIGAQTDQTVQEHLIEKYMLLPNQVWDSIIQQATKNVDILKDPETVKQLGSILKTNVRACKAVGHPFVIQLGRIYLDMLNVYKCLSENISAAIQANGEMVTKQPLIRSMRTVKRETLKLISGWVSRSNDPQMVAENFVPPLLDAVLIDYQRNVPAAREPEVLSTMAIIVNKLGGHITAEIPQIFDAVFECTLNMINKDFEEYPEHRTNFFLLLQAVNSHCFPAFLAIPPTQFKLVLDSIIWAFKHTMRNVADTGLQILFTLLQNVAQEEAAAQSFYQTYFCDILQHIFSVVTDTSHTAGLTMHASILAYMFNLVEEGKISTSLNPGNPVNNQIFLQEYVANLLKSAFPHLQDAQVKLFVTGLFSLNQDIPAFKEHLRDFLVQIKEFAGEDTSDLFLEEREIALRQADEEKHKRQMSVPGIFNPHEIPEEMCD
# Procedure: b-LMB was tested for the ability to bind XPO1 protein. First, a dose-response curve was generated by exposing MM.1S cells to increasing concentrations of b-LMB (0 – 500 nM) for 1.5 hours in culture. The cells were then collected, lysed, and a portion of the lysate (input) was reserved prior to incubating the remaining lysate with streptavidin-tagged beads overnight. After extensive washes, b-LMB bound XPO1 was eluted from the beads, and XPO1 from both input and bead eluate was detected and quantified by Simple Western on Peggy Sue. Simple Western allows for the chemiluminescent detection of proteins from small volumes of samples that are run through a matrix-filled capillary. The signal is detected by a CCD camera which generates a digital image and then reports quantitative results. […] The protein signals for XPO1 detected by Simple Western in Figure 2A were reported as mean peak areas and were used to compare levels of XPO1 present in each sample to produce a graphical representation of the ratio of free XPO1 detected at each concentration of b-LMB (Figure 2B). “Ratio of bound XPO1” is defined as the ratio of the mean peak area of b-LMB bound XPO1 detected in the eluate compared to the mean peak area of all XPO1 detected in the input lysate, while “free-fraction” refers to the amount of XPO1 not occupied by SINE compound, as described later.
# The cells were then collected and processed for the XPO1 occupancy assay. […] For these assays, the “ratio of free-fraction XPO1” is calculated by dividing the mean peak areas of XPO1 occupied by b-LMB (from the eluate) by the total amount of XPO1 (from the input).
# Cells were collected, washed with PBS, and lysed with RIPA Buffer (Thermo Scientific) with protease inhibitors [Complete Ultra Tablets, Mini, EDTA-free, Easy pack (Roche), PhosStop Easy (Roche)]. A portion of the lysate was reserved (input) while the rest was added to washed Dynabeads MyOne Streptavidin T1 (Invitrogen) with RIPA Buffer. Samples were incubated overnight with constant rotation at 4°C. Beads were then washed 5 times with modified RIPA (150 mM NaCl, 50 mM Tris, 1% NP-40, 0.1% Na deoxycholate, 1 mM EDTA, pH 7.8). The reserved portion of lysates (input) and the beads were each mixed with Protein Simple buffer (Protein Simple), DTT (Invitrogen), and fluorescent standards (Protein Simple), then boiled at 95°C for 10 min. Eluates and inputs were analyzed using a capillary western method (Peggy Sue; Protein Simple) with the following primary antibodies: XPO1 (Santa Cruz) and β-actin (Santa Cruz). Capillary westerns were performed by SBH Sciences (Natick, MA). Peak areas corresponding to the protein molecular weight of XPO1 and actin were compared for sample inputs, while the ratio of XPO1 peak areas in eluate to input (ratio of bound or free-fraction XPO1) versus compound concentration were used in XLFit model 205 to calculate 50% and 90% occupancy curves.
smiles,measurement,setting,value
"O=C(/C=C\n1cnc(-c2cc(C(F)(F)F)cc(C(F)(F)F)c2)n1)NNc1cnccn1 [Selinexor, selinexor]",IC50,"[1]; 4 h, read-out: Rev-GFP (nM), U2OS cells stably expressing Rev-GFP, 4 hours treatment",40 nM
same,IC50,"[1]; 4 h, read-out: RevGFP Assay IC50 (μM), Rev-GFP U2OS, selinexor 4 hours, 4 hours post washout",20 nM
same,IC50,"[1]; read-out: Rev-GFP IC50 (μM), U2OS Rev-GFP cells",40 nM
same,IC50,"[1]; read-out: RevGFP Assay IC50 (μM), Rev-GFP U2OS, selinexor 4 hours, 0 hours post washout",10 nM
same,IC50,"[1]; read-out: RevGFP Assay IC50 (μM), Rev-GFP U2OS, selinexor 4 hours, 24 hours post washout",500 nM
same,IC50,"[1]; read-out: RevGFP Assay IC50 (μM), Rev-GFP U2OS, selinexor 4 hours, 48 hours post washout",1300 nM
same,IC50,"[1]; read-out: RevGFP Assay IC50 (μM), Rev-GFP U2OS, selinexor 4 hours, 72 hours post washout",6800 nM
same,IC50,"[1]; read-out: RevGFP Assay IC50 (μM), Rev-GFP U2OS, selinexor 4 hours, 96 hours post washout",11400 nM
same,IC50,[2],30 µM
same,90% Occupancy selinexor,[3]; A549,0.56 µM
same,90% Occupancy selinexor,[3]; AML2,0.22 µM
same,90% Occupancy selinexor,[3]; AML3,0.46 µM
same,90% Occupancy selinexor,[3]; ASPS-KY,0.72 µM
same,90% Occupancy selinexor,[3]; HCT-116,0.76 µM
same,90% Occupancy selinexor,[3]; HEL,0.31 µM
same,90% Occupancy selinexor,[3]; HT1080,1.35 µM
same,90% Occupancy selinexor,[3]; HT1080 resistant,1.67 µM
same,90% Occupancy selinexor,[3]; Kasumi-6,0.57 µM
same,90% Occupancy selinexor,[3]; LS174T,0.38 µM
same,90% Occupancy selinexor,[3]; MM.1S,0.48 µM
same,Avg 90% Occupancy (μM),"[3]; MM.1S cells, SINE compound 1 hour, then 1 nM b-LMB […]",0.52 +/− 0.05 (n = 2) μM
same,90% Occupancy,"[3]; MM.1S cells, followed by 0.1 μM KPT-9058 as probe",0.1 µM and 0.10 µM
same,90% Occupancy selinexor,[3]; MV-4–11,0.61 µM
same,90% of XPO1 occupancy,"[3]; Rev-GFP U2OS cells, selinexor 1 hour, then 1 nM b-LMB […]",0.48 µM
same,90% Occupancy,"[3]; Rev-GFP U2OS, selinexor 4 hours, 0 hours post washout, 1 nM b-LMB",0.16 µM
same,90% Occupancy,"[3]; Rev-GFP U2OS, selinexor 4 hours, 4 hours post washout, 1 nM b-LMB",2.87 µM
same,90% Occupancy,"[3]; Rev-GFP U2OS, selinexor 4 hours, 24 hours post washout, 1 nM b-LMB",> 10 µM
same,90% Occupancy,"[3]; Rev-GFP U2OS, selinexor 4 hours, 48 hours post washout, 1 nM b-LMB",> 10 µM
same,90% Occupancy,"[3]; Rev-GFP U2OS, selinexor 4 hours, 72 hours post washout, 1 nM b-LMB",> 10 µM
same,90% Occupancy,"[3]; Rev-GFP U2OS, selinexor 4 hours, 96 hours post washout, 1 nM b-LMB",> 10 µM
same,90% Occupancy selinexor,[3]; THP-1,0.94 µM
same,90% Occupancy selinexor,[3]; UCH1,0.65 µM
same,90% Occupancy selinexor,[3]; UCH2,0.89 µM
